Data: patent publication US8835476B2, “Synthesis of novel antimicrobials” (priority 2005, dated 2014)
≈ marks a conversion by molar mass, not a printed value. Where two headings read alike, the source gives them in different places.

Legend:
Assay type in all cases: cell-based
A. anitratus ATCC 19606 = experiment: Broth microdilution MIC, ATCC strains; conditions: Acinetobacter calcoaceticus, ATCC19606; A. anitratus ATCC 19606; read-out: MIC (growth inhibition, microdilution method)
Source text: (§1) All clinical isolates tested were from The North American Urinary Tract Infection Collaborative Alliance (NAUTICA) which is a UTI surveillance study involving 40 medical centres (30 from the US and 10 from Canada). Each centre submitted up to 50 consecutive outpatient midstream urine isolates. All isolates were deemed significant urinary tract pathogens by individual laboratory criteria and identified to the species level by each laboratory's existing protocol. Isolates were transported to the coordinating laboratory (Health Sciences Centre, Winnipeg, Canada) on charcoal swabs. Only one isolate per patient was accepted. Upon receipt, isolates were cultured by the coordinating laboratory, stocked in skim milk, and stored at −80° C. awaiting reference antibiotic susceptibility testing. Elementary demographic information was also compiled for each isolate. Isolates were selected randomly from the above pool to represent 18 different species of Enterobacteriaceae and non-Enterobacteriaceae. An average of 5 strains of each species were tested for a total of 93 organisms. In addition, 23 reference (ATCC) [both gram negative and gram positive] strains were tested.
(§2) Susceptibilities to the compounds were determined using the National Committee for Clinical Laboratory Standards (NCCLS) M7-A6 broth microdilution method. […] DMSO controls were incorporated into the panel to mimic the quantity of DMSO used in dissolving some of the compounds at the higher concentrations. Each final panel well volume was 100 μl with a bacterial inoculum of 5×10^5 colony forming units (CFU)/ml. Panels were read following 16 to 20 hours of incubation at 35° C. in ambient air. The minimum inhibitory concentration (MIC) was defined as the lowest concentration of antimicrobial inhibiting visible growth. Quality control (QC) was performed using four ATCC QC organisms that were run with every batch set up to insure reproducibility.

B. cepacia ATCC 25416 = experiment: Broth microdilution MIC, ATCC strains; conditions: Burkholderia cepacia, ATCC25416; B. cepacia ATCC 25416; read-out: MIC (growth inhibition, microdilution method)
Source text: as §1, §2

E. aerogenes ATCC 13048 = experiment: Broth microdilution MIC, ATCC strains; conditions: Klebsiella aerogenes, ATCC13048, read-out: MIC (growth inhibition, microdilution method)
Source text: as §1, §2

E. coli ATCC 25922 = experiment: Broth microdilution MIC, ATCC strains; conditions: Escherichia coli
Source text: as §1, §2

E. faecalis ATCC 29212 = experiment: Broth microdilution MIC, ATCC strains; conditions: Enterococcus faecalis, read-out: MIC (growth inhibition, microdilution method)
Source text: as §1, §2

K. oxytoca ATCC 49131 = experiment: Broth microdilution MIC, ATCC strains; conditions: Klebsiella oxytoca, ATCC49131, read-out: MIC (growth inhibition, microdilution method)
Source text: as §1, §2

K. pneumoniae ATCC 13883 = experiment: Broth microdilution MIC, ATCC strains; conditions: Klebsiella pneumoniae, ATCC13883, read-out: MIC (growth inhibition, microdilution method)
Source text: as §1, §2

MRSA ATCC 33591 = experiment: Broth microdilution MIC, ATCC strains; conditions: Staphylococcus aureus, read-out: MIC (growth inhibition, microdilution method)
Source text: as §1, §2

P. vulgaris ATCC 49132 = experiment: Broth microdilution MIC, ATCC strains; conditions: Proteus vulgaris, ATCC49132, read-out: MIC (growth inhibition, microdilution method)
Source text: as §1, §2

[1] = test system: Ps. aeruginosa ATCC 27853; experiment: Broth microdilution MIC, ATCC strains; conditions: Pseudomonas aeruginosa
Source text: as §1, §2

S. aureus ATCC 29213 = experiment: Broth microdilution MIC, ATCC strains; conditions: Staphylococcus aureus, ATCC29213, read-out: MIC (growth inhibition, microdilution method)
Source text: as §1, §2

[2] = test system: S. maltophilia ATCC 13637; experiment: Broth microdilution MIC, ATCC strains; conditions: Stenotrophomonas maltophilia, ATCC13637; S. maltophilia ATCC 13637; read-out: MIC (growth inhibition, microdilution method)
Source text: as §1, §2

S. marcescens ATCC 8100 = experiment: Broth microdilution MIC, ATCC strains; conditions: Serratia marcescens, ATCC8100, read-out: MIC (growth inhibition, microdilution method)
Source text: as §1, §2

[3] = test system: C. amalonaticus clinical isolates; experiment: Broth microdilution MIC, clinical isolate strains (NAUTICA); conditions: clinical isolates, one table line per isolate; unit assumed
Source text: as §1, §2

[4] = test system: C. freundii clinical isolates; experiment: as above; conditions: clinical isolates, one table line per isolate; in µg/mL (unit assumed)
Source text: as §1, §2

[5] = test system: C. koseril clinical isolates; experiment: as above; conditions: clinical isolates, one table line per isolate; unit assumed
Source text: as §1, §2

[6] = test system: E. aerogenes clinical isolates; experiment: as above; conditions: clinical isolates, one table line per isolate; unit assumed
Source text: as §1, §2

[7] = test system: E. cloacae clinical isolates; experiment: as above; conditions: clinical isolates, one table line per isolate; unit assumed
Source text: as §1, §2

[8] = test system: K. oxytoca clinical isolates; experiment: as above; conditions: clinical isolates, one table line per isolate; unit assumed
Source text: as §1, §2

[9] = test system: K. pneumoniae clinical isolates; experiment: as above; conditions: clinical isolates, one table line per isolate; unit assumed
Source text: as §1, §2

[10] = test system: M. morganii clinical isolates; experiment: as above; conditions: clinical isolates, one table line per isolate; unit assumed
Source text: as §1, §2

[11] = test system: P. mirabilis clinical isolates; experiment: as above; conditions: clinical isolates, one table line per isolate; unit assumed
Source text: as §1, §2

[12] = test system: P. vulgaris clinical isolates; experiment: as above; conditions: clinical isolates, one table line per isolate; unit assumed
Source text: as §1, §2

[13] = test system: S. liquifaciens clinical isolates; experiment: as above; conditions: clinical isolates, one table line per isolate; unit assumed
Source text: as §1, §2

[14] = test system: S. marcescens clinical isolates; experiment: as above; conditions: clinical isolates, one table line per isolate; unit assumed
Source text: as §1, §2

[15] = test system: B. cepacia clinical isolates; experiment: as above; conditions: clinical isolates, one table line per isolate; unit assumed
Source text: as §1, §2

[16] = test system: E. coli clinical isolates; experiment: as above; conditions: clinical isolates, one table line per isolate; unit assumed
Source text: as §1, §2

[17] = test system: P. retgerri clinical isolates; experiment: as above; conditions: clinical isolates, one table line per isolate; unit assumed
Source text: as §1, §2

[18] = ATCC25922, read-out: MIC (growth inhibition, microdilution method)
[19] = ATCC29212, E. faecalis ATCC 29212
[20] = ATCC29212, E. faecalis, ATCC number not given
[21] = ATCC27853, read-out: MIC (growth inhibition, microdilution method), Ps. aeruginosa ATCC 27853
[22] = ATCC27853, Ps. aeruginosa ATCC 27853, read-out: MIC (growth inhibition, microdilution method)

| Structure (SMILES) | MIC (A. anitratus ATCC 19606) [µg/mL] | MIC (B. cepacia ATCC 25416) [µg/mL] | MIC (E. aerogenes ATCC 13048) [µg/mL] | MIC (E. coli ATCC 25922; [18]) [µg/mL] | MIC (E. faecalis ATCC 29212; [19]) [µg/mL] | MIC (E. faecalis ATCC 29212; [20]) [µg/mL] | MIC (K. oxytoca ATCC 49131) [µg/mL] | MIC (K. pneumoniae ATCC 13883) [µg/mL] | MIC (P. vulgaris ATCC 49132) [µg/mL] | MIC [1, 21] [µg/mL] | MIC [1, 22] [µg/mL] | MIC (S. aureus ATCC 29213) [µg/mL] | MIC [2] [µg/mL] | MIC (S. marcescens ATCC 8100) [µg/mL] | MIC, C. AMALONATICUS [3] [µg/mL] | MIC, C. FREUNDII [4] | MIC, C. KOSERI [5] [µg/mL] | MIC, E. AEROGENES [6] [µg/mL] | MIC, E. CLOACAE [7] [µg/mL] | MIC, K. OXYTOCA [8] [µg/mL] | also measured |
| --- | --- | --- | --- | --- | --- | --- | --- | --- | --- | --- | --- | --- | --- | --- | --- | --- | --- | --- | --- | --- | --- |
| O=C(O)c1cc(-c2nnn[nH]2)c(C(=O)O)s1 [DNM-111, 3-(1H-tetrazol-5-yl)thiophene-2,5-dicarboxylic acid] | 64 (≈ 266 µM) | 64 (≈ 266 µM) | 128 (≈ 533 µM) | 128 (≈ 533 µM) | 8 (≈ 33.3 µM) | 8 (≈ 33.3 µM) | 128 (≈ 533 µM) | 128 (≈ 533 µM) | 128 (≈ 533 µM) | 128 (≈ 533 µM) | 64 (≈ 266 µM) | 128 (≈ 533 µM) | 64 (≈ 266 µM) | 128 (≈ 533 µM) | 128 (≈ 533 µM) | 128 | 128 (≈ 533 µM) | 128 (≈ 533 µM) | 128 (≈ 533 µM) | 128 (≈ 533 µM) | MIC (E. coli ATCC 25922; ATCC25922, E. coli ATCC 25922, read-out: MIC (growth inhibition, microdilution method)): 64 µg/mL (≈ 266 µM); MIC (MRSA ATCC 33591): 128 µg/mL (≈ 533 µM); MIC, K. PNEUMONIAE [9]: 128 µg/mL (≈ 533 µM); MIC, M. MORGANII [10]: 128 µg/mL (≈ 533 µM); MIC, P. MIRABILIS [11]: 128 µg/mL (≈ 533 µM); MIC, P. VULGARIS [12]: 128 µg/mL (≈ 533 µM); MIC, S. LIQUEFACIENS [13]: 128 µg/mL (≈ 533 µM); MIC, S. MARCESCENS [14]: 128 µg/mL (≈ 533 µM) |
| COC(=O)c1cc(-c2nnn(C)n2)c(C(=O)OC)s1 [DNM-114, 3-(2-methyl-2H-tetrazol-5-yl)-thiophene-2,5-dicarboxylic acid dimethyl ester] | 64 (≈ 227 µM) | 64 (≈ 227 µM) | 128 (≈ 453 µM) | 128 (≈ 453 µM) | 8 (≈ 28.3 µM) | 8 (≈ 28.3 µM) | 128 (≈ 453 µM) | 128 (≈ 453 µM) | 128 (≈ 453 µM) | 128 (≈ 453 µM) | 64 (≈ 227 µM) | 128 (≈ 453 µM) | 64 (≈ 227 µM) | 128 (≈ 453 µM) | 128 (≈ 453 µM) | 128 | 128 (≈ 453 µM) | 128 (≈ 453 µM) | 128 (≈ 453 µM) | 128 (≈ 453 µM) | MIC (MRSA ATCC 33591; MRSA ATCC 33591): 256 µg/mL (≈ 907 µM); MIC, B. CEPACIA [15]: 64 µg/mL (≈ 227 µM); MIC, E. COLI [16]: 128 µg/mL (≈ 453 µM); MIC, K. PNEUMONIAE [9]: 128 µg/mL (≈ 453 µM); MIC, M. MORGANII [10]: 128 µg/mL (≈ 453 µM); MIC, P. MIRABILIS [11]: 128 µg/mL (≈ 453 µM); MIC, P. RETTGERI [17]: 128 µg/mL (≈ 453 µM); MIC, P. VULGARIS [12]: 128 µg/mL (≈ 453 µM); MIC, S. LIQUEFACIENS [13]: 128 µg/mL (≈ 453 µM); MIC, S. MARCESCENS [14]: 128 µg/mL (≈ 453 µM) |
